Laboratory results published in patent US11834414B2, “1-methyl-4-[(4-phenylphenyl)sulfonylmethyl]cyclohexyanol and 1-methyl-4-[[4-(2-pyridyl)phenyl]sulfonylmethyl]cyclohexanol compounds and their therapeutic use” (Modern Biosciences Limited, priority 2018, dated 2023).
Converted amounts (≈) assume the structure as drawn. “Also recorded” adds a separate entry of the source.

Assays:
[1] = biological target: CYP3A4 (Homo sapiens (Human), UniProt P08684); assay: Human Cytochrome P450 Inhibition Assay (Bactosomes); assay type: in vitro ADME; conditions: recombinant Bactosomes, 10 minutes, 37° C.
[2] = biological target: CYP2C19 (Homo sapiens (Human), UniProt P33261); assay: as above; assay type: in vitro ADME; conditions: recombinant Bactosomes, 10 minutes, 37° C.
[3] = biological target: CYP2D6 (Homo sapiens (Human), UniProt P10635); assay: as above; assay type: in vitro ADME; conditions: recombinant Bactosomes, 10 minutes, 37° C.
[4] = biological target: CYP1A2 (Homo sapiens (Human), UniProt P05177); conditions: recombinant enzyme
[5] = biological target: CYP2C9 (Homo sapiens (Human), UniProt P11712); assay: Human Cytochrome P450 Inhibition Assay (Bactosomes); assay type: in vitro ADME; conditions: recombinant Bactosomes, 10 minutes, 37° C.
[6] = Human hepatocyte stability; assay type: in vitro ADME; conditions: human, pooled human hepatocytes, human hepatocytes, 1 μM, 60 minute incubation; for hepatocyte CLint at 1 μM: read-out: Human Clint (uL/min/million cells); for half-life at 1 μM: read-out: Human t1/2
Procedure: (§1) Metabolic stability of test compounds was measured by determination of the rate of disappearance of the compound when incubated in the presence of rat or human hepatocytes, a primary source of the most important enzymes (cytochrome P450s) involved in drug metabolism. Study of drug stability in the presence of primary hepatocytes is accepted as a valuable model permitting rapid prediction of in vivo drug stability.
(§2) Rat or human hepatocytes were obtained from a commercial source and viability was assessed using a trypan blue solution prior to use. Test compounds (final concentration 1 μM, 0.1% DMSO, 0.9% acetonitrile) or a marker (diclofenac or diltiazem, final assay concentration 1 μM, 0.1% DMSO, 0.9% acetonitrile) were incubated with pooled hepatocytes for a 60 minute period and samples removed at up to 6 time points and analysed by LC-MS/MS for the presence/amount of test compounds.
(§3) Each compound was incubated for 0, 5, 15, 30, 45, or 60 minutes. The reactions were stopped by the addition of methanol containing an internal standard (1 μM Tolbutamide) at the appropriate time points, mixed and placed at −20° C. for ≥1 hour to quench and allow protein to precipitate. All samples were centrifuged (2500×g, 20 minutes, 4° C.). The aliquots were analysed using LC-MS/MS. Reactions were performed in duplicate at 37° C.
(§4) Data were processed, and the results plotted as In(concentration) vs. time. The elimination rate constant (slope of the regression line, k) was calculated using the following formula, where C(t) is the concentration at time t and C(0) is the starting concentration:
(§5) The half-life (t1/2) was calculated using the following formula: […]
(§6) The intrinsic clearance (CIint) was calculated using the following formula, where [cell] is the hepatocyte concentration in the assay: […]

[7] = test system: Thp1 human monocytic cells; assay: Thp1 Monocyte ATP Production Assay; assay type: cell-based; conditions: Homo sapiens, THP-1, 24 h, Thp1 cells, 24 hour incubation, ATPLite; 9-point range 10 μM to 10 nM, mean of 2 independent experiments
Procedure: In vitro potency of test compounds was determined by incubation with Thp1 human monocytic cells and subsequent determination of Adenosine TriPhosphate (ATP) levels using firefly luciferase.
ATP is present in all metabolically active cells. When cells lose integrity, their ability to synthesise ATP is rapidly lost. […] See, e.g., Kang et al., 2015; Jiang et al., 2013. Levels of ATP can be monitored using a system based on firefly (Photinus pyralis) luciferase (see, e.g., Auld et al., 2009) using commercially available kits. A system known as
ATPlite™ was using to measure effects of the test compounds on cellular viability in vitro. This one-step assay system is an adenosine triphosphate (ATP) monitoring system based on the production of light caused by the reaction of ATP from the cells with added luciferase and D-luciferin, as illustrated in the reaction scheme below:
The emitted light is proportional to the ATP concentration.
Thp1 cells were plated at 112500 cells per well in 125 μL RPMI-1640 (no glucose) with 1% FBS in 96-well plates. Test compounds were prepared as 100 mM solutions in DMSO. These stock solutions were diluted in DMSO and then diluted 1000× in culture medium (RPMI) before being added directly to the wells so as to give the desired final compound concentration. After a 24 hour incubation at 37° C./5% CO2, ATPLite™ (Perkin Elmer) was added to each well (1:10 v/v, 10 μL). The plate was then incubated at room temperature for 5 minutes and the emitted light was quantified on Viewlux with a measurement time of 0.3 seconds and binning 4×4.
The average results for each test compound were expressed as a percent (%) of the average control value reflecting cell viability. The average values across the concentrations tested were then plotted and the IC50 for was calculated by fitting the data to a 4-parameter IC50 equation using software from Graf it (Erithacus Software). Each experiment was repeated twice and the data are presented as the mean IC50 from both experiments.

[8] = Aqueous solubility in FaSSIF; assay type: physicochemical; conditions: kinetic from dmso stock, pH 6.5, three replicates
Procedure: Aqueous solubility was measured by equilibration of compounds with fasted state simulated intestinal fluid (FaSSIF) and quantified spectrophotometrically.
Preparation of blank FaSSIF: 0.21 g of sodium hydroxide (NaOH) pellets, 1.97 g of dihydrogen sodium phosphate (NaH2PO4.2H2O) and 3.09 g of sodium chloride (NaCl) were dissolved in 400 mL of deionised water. The pH was adjusted to 6.5 using 1 M hydrochloric acid and further deionised water added to a final volume of 500 mL.
Preparation of FaSSIF: 0.056 g of SIF Powder (containing sodium taurocholate and lecithin) (Phares AG) was dissolved in 25 mL of blank FaSSIF and stirred until the powder was completely dissolved. The solution was allowed to stand for 2 hours during which it became opalescent; it was used within 24 hours. The final solution composition was characterised as follows: • Sodium taurocholate: 3 mM • Lecithin: 0.75 mM • Osmolarity: 270±10 mOsmol • pH: 6.5
The optical density was measured at the end of the incubation period for test compounds and a reference used to determine solubility. In brief, two samples were prepared for each determination: a reference sample consisting of a stock solution of test compound in DMSO diluted in system solution (a phosphate free, low absorption buffer) and propanol; and a test sample (prepared in triplicate) consisting of 0.5 mL FaSSIF spiked with test compound at 0.2 mM. Each sample was incubated at room temperature for 16 hours with constant shaking at 250 rpm. At the end of the incubation period, 0.3 mL of each sample was filtered through a pION filter plate (PION, Woburn MA), diluted 1:1 with propanol and scanned using UV spectrophotometry at λmax ([…]) using a Spectra Max Plus—Version 2.1000 (Molecular Devices, Sunnyvale, CA), with pSOL Explorer solubility determination software (pION, Woburn, MA).
FaSSIF solubility was calculated using the following formula:
[formula] • wherein: • “OD” is the optical density; • “Cr” is the concentration of the reference (33.4 μM); and • “molecular weight” is for the test compound (e.g., 381.44 for ABD735).

[9] = Rat hepatocyte stability; assay type: in vitro ADME; conditions: rat, pooled rat hepatocytes, 60 minute incubation; for hepatocyte CLint at 1 μM: read-out: Rat Clint (μL/min/million cells); for half-life at 1 μM: read-out: Rat t1/2
Procedure: as §1, §2, §3, §4, §5, §6

[10] = test system: human hepatocytes; assay: Human hepatocyte stability; assay type: in vitro ADME; conditions: hepatocyte stability, compared to the reference compounds
Procedure: as §1, §2, §3, §4, §5, §6

[11] = Metabolite identification in rats; assay type: in vivo, Han Wistar rats; conditions: rat, 1 mg/kg intravenous
Procedure: The formation of metabolites in rats was assessed to determine the propensity of the compounds to form a biaryl metabolite.
The corresponding sulfonamide compounds (for example, reference compound HMC-C-01-A) give rise to a sulphonamide metabolite which is persistent and has a long half-life. In addition, the biaryl sulphonamide metabolite acts as an inducer of metabolism in rats, which may complicate the assessment of toxicity in rodents. Therefore, the lower the propensity to form a biaryl sulphonamide metabolite, the greater the potential suitability of the compound for development for human use.
Plasma samples from Han Wistar rats, aged 8-12 weeks, were collected from animals dosed with test compound. Test compounds at a dose of 1 mg/kg were administered intravenously as a solution in 5% NMP, 5% Solutol HS, and 90% normal saline. Animals were given free access to food throughout the study. Blood samples were taken under light isoflurane anaesthesia at 12 time points following an intravenous dose (0.033, 0.1, 0.167, 0.25, 0.5, 1, 2, 4, 6, 8, 12, and 24 hours). The blood samples were collected from a set of three rats at each time point in labelled micro centrifuge tube containing K2EDTA as anticoagulant. Plasma samples were separated by centrifugation of whole blood.
All samples were processed for analysis by protein precipitation using acetonitrile and analysed with a fit-for-purpose LC-MS/MS method.
At the completion of the study, the results were expressed as detection of the metabolite and time course of formation.

CYP1A2, sequence (P05177 whole entry): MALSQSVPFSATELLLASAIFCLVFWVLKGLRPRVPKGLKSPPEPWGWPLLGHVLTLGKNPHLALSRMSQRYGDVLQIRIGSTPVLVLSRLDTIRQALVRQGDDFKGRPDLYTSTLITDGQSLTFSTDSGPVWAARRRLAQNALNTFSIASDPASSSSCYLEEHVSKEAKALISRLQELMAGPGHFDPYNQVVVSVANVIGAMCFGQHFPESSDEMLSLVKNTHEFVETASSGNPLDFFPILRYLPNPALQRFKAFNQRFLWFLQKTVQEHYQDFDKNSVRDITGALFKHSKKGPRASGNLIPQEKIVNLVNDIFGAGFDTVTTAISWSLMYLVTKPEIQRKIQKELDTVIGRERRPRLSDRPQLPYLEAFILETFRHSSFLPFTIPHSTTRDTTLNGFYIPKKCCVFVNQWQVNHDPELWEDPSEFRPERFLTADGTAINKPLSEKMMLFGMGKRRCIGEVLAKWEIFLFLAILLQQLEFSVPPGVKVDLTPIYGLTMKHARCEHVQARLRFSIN
CYP2C19, sequence (P33261 whole entry): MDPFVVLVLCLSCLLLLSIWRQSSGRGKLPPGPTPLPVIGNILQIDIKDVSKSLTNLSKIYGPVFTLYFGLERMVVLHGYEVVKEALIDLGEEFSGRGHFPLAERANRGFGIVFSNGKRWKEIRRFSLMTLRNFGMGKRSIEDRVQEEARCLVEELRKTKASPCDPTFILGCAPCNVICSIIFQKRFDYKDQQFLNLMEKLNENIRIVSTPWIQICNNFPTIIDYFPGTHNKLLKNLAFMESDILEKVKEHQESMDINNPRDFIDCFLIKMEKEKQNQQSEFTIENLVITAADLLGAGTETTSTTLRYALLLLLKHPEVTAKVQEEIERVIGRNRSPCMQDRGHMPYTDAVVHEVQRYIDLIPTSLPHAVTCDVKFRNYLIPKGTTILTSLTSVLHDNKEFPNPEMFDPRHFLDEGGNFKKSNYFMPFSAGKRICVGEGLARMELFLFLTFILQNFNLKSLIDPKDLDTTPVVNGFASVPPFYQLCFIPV
CYP2D6, sequence (P10635 whole entry): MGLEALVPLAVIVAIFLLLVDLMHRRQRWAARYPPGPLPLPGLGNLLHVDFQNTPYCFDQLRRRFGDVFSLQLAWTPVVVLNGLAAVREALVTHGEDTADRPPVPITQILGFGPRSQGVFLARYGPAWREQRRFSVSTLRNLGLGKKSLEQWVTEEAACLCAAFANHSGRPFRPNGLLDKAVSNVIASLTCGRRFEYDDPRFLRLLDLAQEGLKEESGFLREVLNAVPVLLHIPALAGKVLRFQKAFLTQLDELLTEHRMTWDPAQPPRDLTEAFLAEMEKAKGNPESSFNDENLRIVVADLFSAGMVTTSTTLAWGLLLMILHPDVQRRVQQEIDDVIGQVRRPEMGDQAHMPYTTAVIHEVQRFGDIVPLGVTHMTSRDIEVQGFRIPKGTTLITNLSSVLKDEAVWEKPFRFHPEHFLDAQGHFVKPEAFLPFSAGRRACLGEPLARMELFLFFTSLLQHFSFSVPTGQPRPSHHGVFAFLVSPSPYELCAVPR
CYP2C9, sequence (P11712 whole entry): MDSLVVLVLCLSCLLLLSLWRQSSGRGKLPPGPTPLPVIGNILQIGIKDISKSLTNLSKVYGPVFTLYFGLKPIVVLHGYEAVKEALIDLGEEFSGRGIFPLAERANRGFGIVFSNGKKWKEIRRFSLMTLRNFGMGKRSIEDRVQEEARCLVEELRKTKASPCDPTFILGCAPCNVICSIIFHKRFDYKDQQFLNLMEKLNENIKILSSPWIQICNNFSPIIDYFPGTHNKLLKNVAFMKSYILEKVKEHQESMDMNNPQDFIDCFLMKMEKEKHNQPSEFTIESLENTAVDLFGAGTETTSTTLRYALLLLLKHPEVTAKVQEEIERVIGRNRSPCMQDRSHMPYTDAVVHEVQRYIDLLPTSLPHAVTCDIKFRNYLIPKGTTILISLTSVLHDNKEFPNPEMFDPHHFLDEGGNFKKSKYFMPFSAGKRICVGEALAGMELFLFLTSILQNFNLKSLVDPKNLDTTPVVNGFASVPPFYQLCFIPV
CYP3A4, sequence (P08684 whole entry): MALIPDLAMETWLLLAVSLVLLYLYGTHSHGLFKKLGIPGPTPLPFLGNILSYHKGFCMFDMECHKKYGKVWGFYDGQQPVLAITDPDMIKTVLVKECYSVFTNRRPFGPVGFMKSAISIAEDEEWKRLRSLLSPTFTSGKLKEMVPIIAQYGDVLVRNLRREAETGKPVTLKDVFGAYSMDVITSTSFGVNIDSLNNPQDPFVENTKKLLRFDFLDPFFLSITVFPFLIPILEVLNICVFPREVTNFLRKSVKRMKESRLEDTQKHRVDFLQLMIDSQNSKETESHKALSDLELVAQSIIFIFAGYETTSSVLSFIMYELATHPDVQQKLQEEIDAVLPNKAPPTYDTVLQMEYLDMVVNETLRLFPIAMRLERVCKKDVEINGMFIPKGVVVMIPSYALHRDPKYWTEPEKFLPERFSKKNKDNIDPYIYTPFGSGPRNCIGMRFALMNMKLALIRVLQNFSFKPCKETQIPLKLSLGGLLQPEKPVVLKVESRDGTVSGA

Row | Structure (SMILES) | IC50 [1] | IC50 [2] | IC50 [3] | IC50 [4] | IC50 [5] | hepatocyte CLint at 1 μM [6] | half-life at 1 μM [6] | IC50 [7] | solubility at 16 h [8] | hepatocyte CLint at 1 μM [9] | half-life at 1 μM [9] | metabolic stability (in words) [10] | time after administration at which metabolite MET-002 was detected [11] | formation of biaryl sulphonamide metabolite (MET-001) in plasma ([11]; up to 24 hours) | formation of biaryl sulphonic acid metabolite (MET-002) in plasma ([11]; up to 24 hours)
1 | CC1(O)CCC(NS(=O)(=O)c2ccc(-c3cc(F)c(F)cc3F)cc2)CC1 (stereo not drawn) [HMC-C-10-B, reference compound] | 9.2 µM | 8.5 µM | > 16 µM | > 16 µM | 2.4 µM |  |  |  |  |  |  |  |  |  | 
2 | C[C@]1(O)CC[C@H](CS(=O)(=O)c2ccc(-c3ccc(F)cc3F)cc2)CC1 [CHMSA-04-B, trans-4-(((2′,4′-difluoro-(1,1′-biphenyl)-4-yl)sulfonyl)methyl)-1-methylcyclohexan-1-ol] |  |  |  |  |  | < 3 µL/min/1e6 cells | > 460 min | 2.4 µM | 40 µg/mL (≈ 105 µM) | 51.3 µL/min/1e6 cells | 31.4 min |  |  |  | 
3 | C[C@]1(O)CC[C@@H](CS(=O)(=O)c2ccc(-c3ccc(F)cc3F)cc2)CC1 [CHMSA-04-A, cis-4-(((2′,4′-Difluoro-(1,1′-biphenyl)-4-yl)sulfonyl)methyl)-1-methylcyclohexan-1-ol] |  |  |  |  |  | 40.6 µL/min/1e6 cells | 27.5 min | 0.98 µM | > 70 µg/mL | 37.4 µL/min/1e6 cells | 47.1 min |  |  |  | 
4 | C[C@]1(O)CC[C@H](CS(=O)(=O)c2ccc(-c3ccc(C#N)cc3)c(F)c2)CC1 [CHMSA-12-B, 2′-Fluoro-4′-(((trans-4-hydroxy-4-methylcyclohexyl)methyl)sulfonyl)-[1,1′-biphenyl]-4-carbonitrile] |  |  |  |  |  | < 3.1 µL/min/1e6 cells | > 442 min | 3.2 µM |  |  |  | exceptionally good stability |  |  | 
5 | CC1(O)CCC(NS(=O)(=O)c2ccc(-c3ccc(Cl)cc3C#N)c(Cl)c2)CC1 (stereo not drawn) [HMC-C-11-A, reference compound] | 12 µM | 5.1 µM | 9.3 µM | 11 µM | 2.7 µM |  |  |  |  |  |  |  |  |  | 
6 | C[C@]1(O)CC[C@@H](CS(=O)(=O)c2ccc(-c3ccc(C#N)cc3)c(F)c2)CC1 [CHMSA-12-A, 2′-fluoro-4′-(((cis-4-hydroxy-4-methylcyclohexyl)methyl)sulfonyl)-[1,1′-biphenyl]-4-carbonitrile] |  |  |  |  |  | < 3.1 µL/min/1e6 cells | > 436 min | 1.8 µM |  |  |  | exceptionally good stability |  |  | 
7 | C[C@]1(O)CC[C@H](CS(=O)(=O)c2ccc(-c3ccc(Cl)cc3C#N)cc2)CC1 [CHMSA-10-B, 4-Chloro-4′-((trans-4-hydroxy-4-methylcyclohexyl)methanesulfonyl)-(1,1′-biphenyl)-2-carbonitrile] |  |  |  |  |  | 5.8 µL/min/1e6 cells | 195 min | 1.96 µM |  | 336 µL/min/1e6 cells | 4.8 min |  | 0.5 h | did not produce any biaryl sulphonamide metabolite | detected only transiently; also recorded: only transiently detected
8 | CC1(O)CCC(NS(=O)(=O)c2ccc(-c3ccc(C#N)cc3Cl)cc2)CC1 (stereo not drawn) [HMC-C-09-A, reference compound] | 33 µM | > 50 µM | > 50 µM | 23 µM | 34 µM |  |  |  |  |  |  |  |  |  | 
9 | CC1(O)CCC(NS(=O)(=O)c2ccc(-c3ncc(Cl)cc3C#N)cc2)CC1 (stereo not drawn) [HMC-N-05-A, reference compound] | > 50 µM | > 50 µM | > 50 µM | 36 µM | 27 µM |  |  |  |  |  |  |  |  |  | 
